According to patent publication US10233156B2, “9-membered fused ring derivative” (Shionogi & Co., Ltd., priority 2015, dated 2019):

Biological target: recombinant human ACC1 (Homo sapiens (Human), UniProt Q13085)
Assay: Measurement of inhibitory activity on human ACC1 (MALDI-TOF MS, conversion of acetyl CoA to malonyl CoA)
Assay type: biochemical
Settings: recombinant human ACC1, room temperature, 1 to 3 hours
From the text: After a cDNA encoding human ACC1 (1 amino acid residue to 2346 amino acid residues from the N-terminus) was cloned from human liver cDNA library (BioChain), human ACC1 gene containing myc-tag and His-tag sequence at 3′ terminus was inserted into pIEXBAC3 (Novagen). Recombinant baculovirus was generated using FlashBACGOLD system (Oxford Expression Technologies) according to the manufacturer's protocol. To express human ACC1, Sf-9 cells were infected with recombinant baculovirus. After infected cells were disrupted, the filtrated lysate was subjected to Ni-affinity chromatography and anion-exchange chromatography. The fractions containing human ACC1 protein were pooled as recombinant human ACC1 solution.
(§1) Recombinant human ACC1 and recombinant human ACC2, which were prepared by the method mentioned above, were preincubated with assay buffer solution (50 mM HEPES-KOH (pH 7.4), 10 mM magnesium chloride, 6-10 mM potassium citrate, 4 mM reduced form of glutathione, 1.5 mg/ml bovine serum albumin) for one hour. Then, 0.2 μL of each this invention compound solution (in DMSO) were dispensed to 384-well microplate, 5 μL of the preincubated enzyme solution and 5 μL of substrate solution (50 mM HEPES-KOH (pH 7.4), 1 mM ATP, 0.8 mM acetyl CoA and 25-50 mM potassium bicarbonate) were added to microplate. After centrifugation and shaking, the reaction mixtures were incubated in a humidified box at room temperature for 1 to 3 hours. After the incubation, the enzyme reactions were stopped by the addition of EDTA. Then, after the samples were cocrystallized with CHCA (α-cyano-4-hydroxy cinnamic acid) matrices on MALDI target plate, by using the matrix assist laser […] time-of-flight mass spectrometer (MALDI-TOF MS), samples were measured in reflector negative mode. Deprotonated ions of acetyl CoA (AcCoA) of substrate and malonyl CoA (MalCoA) of the reaction product were detected, then, the conversion rates of acetyl CoA to malonyl CoA was calculated by the intensity of [MalCoA-H]−/(Intensity of [MalCoA-H].+Intensity of [AcCoA-H]—) using each signal strength. […] In addition, potassium citrate concentrations in assay buffer solution, potassium hydrogen carbonate concentrations in substrate solution and incubation time were adjusted by each lot of enzyme.

| SMILES | IC50 [nM] |
| --- | --- |
| CC(=O)N[C@@H](C)CO[C@H]1CC[C@H](Oc2nc3ncc(OC4CC4)cc3n2C)CC1 [Example I-199] | > 100000 |
| C[C@@H](CO[C@H]1CC[C@H](Oc2nc3ncc(OC4CC4)cc3n2C)CC1)NC(N)=O [Example I-204] | > 100000 |
| CC(=O)N[C@@H](C)CC(F)(F)[C@@H]1CC[C@@H](Oc2nc3c(F)cc(OCC(F)F)c(F)c3n2C)CO1 [Example I-230] | > 100000 |
| Cn1c(O[C@H]2CC[C@H](OC[C@H](CF)NC(=O)C3CC3)CC2)nc2c(F)cc(OCC(F)F)c(F)c21 [Example I-233] | > 100000 |
| C[C@@H](CO[C@H]1CC[C@H](Oc2nc3c(F)cc(OCC(F)F)c(F)c3n2C)CC1)NS(N)(=O)=O [Example I-242] | > 100000 |
| Cn1c(O[C@H]2CC[C@H](OC[C@H](CF)NC(=O)CO)CC2)nc2c(F)cc(OCC(F)F)c(F)c21 [Example I-245] | > 100000 |
| CC(=O)N[C@@H](C)CO[C@H]1CC[C@H](Cc2nc3c(F)cc(OCC(F)F)c(F)c3n2C)CC1 [Example I-252] | > 100000 |

Biological target: recombinant human ACC2 (Homo sapiens (Human), UniProt O00763)
Sequence (O00763 27-2458): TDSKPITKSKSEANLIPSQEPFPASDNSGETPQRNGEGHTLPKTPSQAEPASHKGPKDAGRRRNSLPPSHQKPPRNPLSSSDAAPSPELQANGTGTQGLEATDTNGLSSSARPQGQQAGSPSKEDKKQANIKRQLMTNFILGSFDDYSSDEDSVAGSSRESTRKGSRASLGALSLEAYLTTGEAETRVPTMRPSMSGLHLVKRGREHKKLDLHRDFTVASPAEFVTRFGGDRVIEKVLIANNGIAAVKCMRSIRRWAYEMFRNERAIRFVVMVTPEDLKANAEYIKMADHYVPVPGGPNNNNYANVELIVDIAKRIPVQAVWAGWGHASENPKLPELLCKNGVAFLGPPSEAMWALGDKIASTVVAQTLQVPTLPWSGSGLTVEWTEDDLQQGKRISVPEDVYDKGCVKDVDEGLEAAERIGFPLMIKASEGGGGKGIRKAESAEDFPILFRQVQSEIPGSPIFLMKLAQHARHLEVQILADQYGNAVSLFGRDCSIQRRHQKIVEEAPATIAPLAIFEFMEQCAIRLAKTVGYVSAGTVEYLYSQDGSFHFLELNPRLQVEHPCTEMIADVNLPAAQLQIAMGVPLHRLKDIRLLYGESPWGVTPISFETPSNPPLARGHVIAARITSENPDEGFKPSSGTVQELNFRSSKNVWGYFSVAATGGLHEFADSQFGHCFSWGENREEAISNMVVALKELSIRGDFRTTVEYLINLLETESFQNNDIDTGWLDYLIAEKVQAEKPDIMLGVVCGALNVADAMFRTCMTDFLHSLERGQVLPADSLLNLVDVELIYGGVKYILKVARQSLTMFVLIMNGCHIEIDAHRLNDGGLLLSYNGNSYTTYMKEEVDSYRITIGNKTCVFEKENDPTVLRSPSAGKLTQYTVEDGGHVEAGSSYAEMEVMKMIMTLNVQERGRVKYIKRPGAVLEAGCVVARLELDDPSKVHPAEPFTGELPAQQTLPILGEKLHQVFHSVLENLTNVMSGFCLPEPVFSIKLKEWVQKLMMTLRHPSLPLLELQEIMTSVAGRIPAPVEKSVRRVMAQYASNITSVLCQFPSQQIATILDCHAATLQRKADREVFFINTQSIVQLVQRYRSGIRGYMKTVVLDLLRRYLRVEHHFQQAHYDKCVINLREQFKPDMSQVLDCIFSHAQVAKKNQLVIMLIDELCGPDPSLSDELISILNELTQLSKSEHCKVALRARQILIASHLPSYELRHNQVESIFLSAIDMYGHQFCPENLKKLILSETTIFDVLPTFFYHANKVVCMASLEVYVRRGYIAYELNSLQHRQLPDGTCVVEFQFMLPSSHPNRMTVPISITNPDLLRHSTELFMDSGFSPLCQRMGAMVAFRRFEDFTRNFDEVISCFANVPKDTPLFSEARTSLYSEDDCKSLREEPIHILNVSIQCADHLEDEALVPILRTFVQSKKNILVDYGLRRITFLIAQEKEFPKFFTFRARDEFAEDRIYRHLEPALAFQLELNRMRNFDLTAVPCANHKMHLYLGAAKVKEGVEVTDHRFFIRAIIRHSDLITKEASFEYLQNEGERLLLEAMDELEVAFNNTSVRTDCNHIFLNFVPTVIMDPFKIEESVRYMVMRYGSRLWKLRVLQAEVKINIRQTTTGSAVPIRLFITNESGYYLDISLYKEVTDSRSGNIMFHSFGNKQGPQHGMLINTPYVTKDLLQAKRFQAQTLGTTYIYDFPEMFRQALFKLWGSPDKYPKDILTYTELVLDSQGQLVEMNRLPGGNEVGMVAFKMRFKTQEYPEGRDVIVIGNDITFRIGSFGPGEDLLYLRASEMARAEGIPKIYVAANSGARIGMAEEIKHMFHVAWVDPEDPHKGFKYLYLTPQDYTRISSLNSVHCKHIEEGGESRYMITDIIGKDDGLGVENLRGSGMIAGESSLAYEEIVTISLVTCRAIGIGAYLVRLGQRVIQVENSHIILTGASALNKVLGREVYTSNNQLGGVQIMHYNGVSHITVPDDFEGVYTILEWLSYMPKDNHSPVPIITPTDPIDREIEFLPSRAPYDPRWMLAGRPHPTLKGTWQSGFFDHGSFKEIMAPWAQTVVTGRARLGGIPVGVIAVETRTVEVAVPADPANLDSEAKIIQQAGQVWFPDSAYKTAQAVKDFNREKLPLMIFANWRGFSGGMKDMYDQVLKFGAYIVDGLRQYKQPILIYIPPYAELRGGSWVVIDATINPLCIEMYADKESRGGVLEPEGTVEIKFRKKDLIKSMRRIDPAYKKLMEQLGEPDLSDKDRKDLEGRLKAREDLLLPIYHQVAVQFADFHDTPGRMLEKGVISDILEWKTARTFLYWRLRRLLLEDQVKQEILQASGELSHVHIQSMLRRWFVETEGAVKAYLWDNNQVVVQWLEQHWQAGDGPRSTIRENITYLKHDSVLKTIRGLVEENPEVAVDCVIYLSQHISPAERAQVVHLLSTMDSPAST
Assay: Measurement of inhibitory activity on human ACC2 (MALDI-TOF MS, conversion of acetyl CoA to malonyl CoA)
Assay type: biochemical
Settings: recombinant human ACC2, room temperature, 1 to 3 hours
From the text: After a cDNA encoding human ACC2 (27 amino acid residue to 2458 amino acid residues from the N-terminus) was cloned from human kidney cDNA library (Clontech), human ACC2 gene containing His-tag sequence at 5′ terminus was inserted into pFastBac1 (Invitrogen). Recombinant baculovirus was generated using Bac-to-Bac baculovirus expression system (Invitrogen) according to the manufacturer's protocol. To express human ACC2, Sf-9 cells were infected with recombinant baculovirus. After infected cells were disrupted, the filtrated lysate was subjected to Ni-affinity chromatography and anion-exchange chromatography. The fractions containing human ACC2 protein were pooled as recombinant human ACC2 solution.
as §1

| SMILES | IC50 [nM] |
| --- | --- |
| CC(=O)N[C@@H](C)CO[C@H]1CC[C@H](Oc2nc3c(F)cc(OCC4(F)COC4)c(F)c3n2C)CC1 [Example I-195] | 35 |
| CC(=O)N[C@@H](C)CC[C@H]1OC[C@H](Oc2nc3c(F)cc(OCC(F)F)c(F)c3n2C)C[C@@H]1F [Example I-196] | 10 |
| C[C@@H](CO[C@H]1CC[C@H](Oc2nc3ccc(OC4CC4)cc3n2C)CC1)NC(N)=O [Example I-197] | 13 |
| C[C@@H](CO[C@H]1CC[C@H](Oc2nc3ccc(OC4CC4)c(F)c3n2C)CC1)NC(N)=O [Example I-198] | 5.3 |
| CC(=O)N[C@@H](C)CO[C@H]1CC[C@H](Oc2nc3ncc(OC4CC4)cc3n2C)CC1 [Example I-199] | 730 |
| CC(=O)N[C@@H](CF)CO[C@H]1CC[C@H](Oc2nc3c(F)cc(OC4CC4)cc3n2C)CC1 [Example I-201] | 4.7 |
| CC(=O)N[C@@H](C)CO[C@H]1CC[C@H](Oc2nc3ccc(OC4(C)CC4)cc3n2C)CC1 [Example I-202] | 17 |
| CC(=O)N[C@@H](C)CO[C@H]1CC[C@H](Oc2nc3c(F)cc(OC4(C)COC4)c(F)c3n2C)CC1 [Example I-203] | 110 |
| CC(=O)N[C@@H](CF)CO[C@H]1CC[C@H](Oc2nc3c(F)cc(OCC(F)F)c(Cl)c3n2C)CC1 [Example I-205] | 4.6 |
| CC(=O)N[C@@H](CF)CO[C@H]1CC[C@H](Oc2nc3c(C#N)cc(OC4CC4)c(F)c3n2C)CC1 [Example I-206] | 12 |
| CC(=O)N[C@@H](C)CO[C@H]1CC[C@H](Oc2nc3cc(F)c(OC4CC4)c(F)c3n2C)CC1 [Example I-207] | 5.4 |
| CC(=O)N[C@@H](C)CO[C@H]1CC[C@H](Oc2nc3c(F)cc(OCC(F)F)c(F)c3n2C)CC1 [Example I-208] | 8.7 |
| CC(=O)N[C@@H](C)CO[C@H]1CC[C@H](Oc2nc3c(F)c(F)c(OCC(F)F)c(F)c3n2C)CC1 [Example I-209] | 5.3 |
| CC(=O)N[C@@H](CF)CO[C@H]1CC[C@H](Oc2nc3cnc(OC4CC4)c(F)c3n2C)CC1 [Example I-210] | 7.2 |
| CC(=O)N[C@@H](C)CO[C@H]1CC[C@H](Oc2nc3cc(Cl)c(F)cc3n2C)CC1 [Example I-211] | 120 |
| CC(=O)N[C@@H](C)CO[C@H]1CC[C@H](Oc2nc3cc(F)c(OC4CC4)cc3n2C)CC1 [Example I-212] | 55 |
| Cn1c(O[C@H]2CC[C@H](OC[C@H](CF)NC(N)=O)CC2)nc2c(F)cc(OC3CC3)cc21 [Example I-213] | 8.9 |
| CC(=O)N[C@@H](C)C(F)(F)C[C@H]1CC[C@H](Oc2nc3c(F)cc(OCC(F)F)c(F)c3n2C)CO1 [Example I-214] | 12 |
| CC(=O)N[C@@H](C)CO[C@H]1CC[C@H](Oc2nc3cc(F)c(F)c(F)c3n2C)CC1 [Example I-215] | 17 |
| CC(=O)N[C@@H](C)CO[C@H]1CC[C@H](Oc2nc3c(F)cc(OC4CC5(COC5)C4)c(F)c3n2C)CC1 [Example I-216] | 57 |
| CC(=O)N[C@@H](C)CO[C@H]1CC[C@H](Oc2nc3cc(F)c(Cl)cc3n2C)CC1 [Example I-217] | 64 |
| C[C@@H](CO[C@H]1CC[C@H](Oc2nc3cc(F)c(OC4CC4)cc3n2C)CC1)NC(N)=O [Example I-218] | 120 |
| CC(=O)N[C@@H](C)CO[C@H]1CC[C@H](Oc2nc3c(F)cc(OC4COC4)c(Cl)c3n2C)CC1 [Example I-219] | 12 |
| CC(=O)N[C@H](C)C(F)(F)C[C@H]1CC[C@H](Oc2nc3c(F)cc(OCC(F)F)c(F)c3n2C)CO1 [Example I-220] | 180 |
| CC(=O)N[C@@H](C)CO[C@H]1CC[C@H](Oc2nc3ccc(OC4CC4)cc3n2C)CC1 [Example I-221] | 9.1 |
| C[C@@H](CO[C@H]1CC[C@H](Oc2nc3c(Cl)cc(OC4CC4)cc3n2C)CC1)NC(N)=O [Example I-222] | 17 |
| CC(=O)N[C@@H](C)CO[C@H]1CC[C@H](Oc2nc3c(F)cc(O[C@H]4C[C@H](O)C4)c(F)c3n2C)CC1 [Example I-223] | 87 |

| SMILES | IC50 [nM] |
| --- | --- |
| CC(=O)N[C@@H](C)CO[C@H]1CC[C@H](Oc2nc3cnc(OC4CC4)cc3n2C)CC1 [Example I-224] | 150 |
| CC(=O)N[C@@H](C)CO[C@H]1CC[C@H](Oc2nc3c(C#N)cc(OC4CC4)cc3n2C)CC1 [Example I-225] | 33 |
| CC(=O)N[C@@H](C)CO[C@H]1CC[C@H](Oc2nc3c(C#N)cc(OC4CCC4)c(F)c3n2C)CC1 [Example I-226] | 6.1 |
| Cn1c(O[C@H]2CC[C@H](OC[C@H](CF)NC(=O)CC#N)CC2)nc2c(F)cc(OCC(F)F)c(F)c21 [Example I-227] | 44 |
| CC(=O)N[C@@H](C)CC[C@H]1OC[C@H](Oc2nc3c(F)cc(OCC(F)F)c(F)c3n2C)CC1(F)F [Example I-228] | 13 |
| C[C@@H](CO[C@H]1CC[C@H](Oc2nc3cnc(OC4CC4)cc3n2C)CC1)NC(N)=O [Example I-229] | 600 |
| CC(=O)N[C@@H](C)CC(F)(F)[C@@H]1CC[C@@H](Oc2nc3c(F)cc(OCC(F)F)c(F)c3n2C)CO1 [Example I-230] | 89 |
| CC(=O)N[C@@H](C)CO[C@H]1CC[C@H](Oc2nc3c(F)cc(OC(F)F)c(F)c3n2C)CC1 [Example I-231] | 10 |
| Cn1c(O[C@H]2CC[C@H](OC[C@H](CF)NC(N)=O)CC2)nc2c(F)cc(OCC(F)F)c(F)c21 [Example I-232] | 11 |
| Cn1c(O[C@H]2CC[C@H](OC[C@H](CF)NC(=O)C3CC3)CC2)nc2c(F)cc(OCC(F)F)c(F)c21 [Example I-233] | 31 |
| CC(=O)N[C@@H](C)CO[C@H]1CC[C@H](Oc2nc3ccc(OC4CC4)nc3n2C)CC1 [Example I-234] | 13 |
| C[C@@H](CO[C@H]1CC[C@H](Oc2nc3c(F)c(F)c(F)c(F)c3n2C)CC1)NC(N)=O [Example I-235] | 43 |
| C[C@@H](CO[C@H]1CC[C@H](Oc2nc3cnc(OC4CC4)c(F)c3n2C)CC1)NC(N)=O [Example I-237] | 12 |
| CC(=O)N[C@@H](C)CO[C@H]1CC[C@H](Oc2nc3cc(F)c(F)cc3n2C)CC1 [Example I-238] | 83 |
| COC(=O)N[C@@H](CF)CO[C@H]1CC[C@H](Oc2nc3c(F)cc(OCC(F)F)c(F)c3n2C)CC1 [Example I-239] | 30 |
| C[C@@H](CO[C@H]1CC[C@H](Oc2nc3ccc(OC4CC4)nc3n2C)CC1)NC(N)=O [Example I-240] | 44 |
| C[C@@H](CO[C@H]1CC[C@H](Oc2nc3cc(F)c(OC4CC4)c(F)c3n2C)CC1)NC(N)=O [Example I-241] | 9.5 |
| C[C@@H](CO[C@H]1CC[C@H](Oc2nc3c(F)cc(OCC(F)F)c(F)c3n2C)CC1)NS(N)(=O)=O [Example I-242] | 120 |
| C[C@@H](CO[C@H]1CC[C@H](Oc2nc3c(F)cc(OC4CC4)cc3n2C)CC1)NC(N)=O [Example I-243] | 5.6 |
| CC(=O)N[C@@H](C)CO[C@H]1CC[C@H](Oc2nc3c(F)cc(OCC(C)(C)C#N)c(F)c3n2C)CC1 [Example I-244] | 26 |
| Cn1c(O[C@H]2CC[C@H](OC[C@H](CF)NC(=O)CO)CC2)nc2c(F)cc(OCC(F)F)c(F)c21 [Example I-245] | 53 |
| CC(=O)N[C@@H](C)CO[C@H]1CC[C@H](Oc2nc3c(F)cc(O[C@H]4C[C@@H](O)C4)c(F)c3n2C)CC1 [Example I-246] | 78 |
| CC(=O)N[C@@H](C)CO[C@H]1CC[C@H](Oc2nc3ccc(OC4CC4)c(F)c3n2C)CC1 [Example I-247] | 3.9 |
| CC(=O)N[C@@H](C)CC[C@H]1OC[C@H](Oc2nc3c(F)cc(OC4CC4)cc3n2C)CO1 [Example I-249] | 6.6 |
| CC(=O)N[C@@H](C)/C=C(\F)[C@@H]1CC[C@@H](Oc2nc3c(F)cc(OCC(F)F)c(F)c3n2C)CO1 [Example I-250] | 21 |
| CC(=O)N[C@@H](C)CO[C@H]1CC[C@@H](Cc2nc3c(F)cc(OCC(F)F)c(F)c3n2C)CC1 [Example I-251] | 100 |
